In patent US20150257378A1, “PHEROMONE ATTRACTANTS FOR TAWNY CRAZY ANTS” (STERLING INTERNATIONAL INC., priority 2014, published 2015):

Columns and labels:
[1] = test system: N. fulva workers; assay: Field trapping experiments with baited sticky traps; format: in vivo, Nylanderia fulva; conditions: for attraction compared with blank control: Exp. 8, full factorial design, n-undecane 6-7 mg/day, 2-tridecanone 1 mg/day, formic acid 27-30 mg/d, three days
Protocol: Nine field trapping experiments were carried out in an old oak woodland with sandy soil and low grass understory at La Marque, Tex., USA (29° 21′23.73″N; 95° 0′9.47″W), using Terro® “Spider & Insect Traps” (sticky traps; Woodstream Corporation, Lititz, Pa.) or Rescue!® crawling insect sticky traps (described, for example in U.S. Application Publication No. 2013/0318860 A1, herein incorporated by reference in its entirety). All the tested dispensers were placed in the center of sticky surface on the bottom of the trap. An unbaited sticky trap was included in each experiment block for all the experiments as a blank control.
Experiments 1 and 2 were conducted simultaneously in summer. Exp. 1 tested two synthetic Dufour's gland pheromone candidate mixtures identified from N. fulva workers (treatment “A”: a mix of eight compounds at near natural ratios from workers: n-undecane, 2-tridecanone, n-decane, 1-undecene, n-tridecane, 2-dodecanone, 2-tetradecanone, 2-pentadecanone; 41:53:1.2:0.5:1:2:0.3:1) and queens (treatment “B”: a mix of four compounds at near natural ratios: n-undecane, 2-tridecanone, n-tridecane and 2-pentadecanone; 54:40:1:5) plus a synthetic binary blend of the two major components (undecane and 2-tridecanone at 50:50 ratio) identified from both workers and queens (treatment “C”) (Table in FIG. 3) using centrifuge tube dispensers with low loading (30 mg each mixture on a small cotton ball inside an open cap 2-ml centrifuge dispenser) at about 2 mg/day (mg/d) release in a randomized block design (6 blocks) using Terro® “Spider & Insect Traps”. Traps were placed on the ground in lines with 2 meters (m) between traps within each set, 3 m between trap sets. […] Experiment 2 was distanced about 15 m away from Exp. 1. The tawny crazy ant population level at the testing site was relatively high and ubiquitous throughout the landscape, as the tawny crazy ant population was actively foraging over the entire surface of the woodland understory and up every tree. The weather was sunny with a mean daily temperature of 28.6° C.
Experiments 3 and 4 were conducted simultaneously in the fall. Exp. 3 tested two synthetic Dufour's gland pheromone candidate mixtures mimicking the N. fulva workers (treatment “A”: a mix of eight compounds; 100 mg loading) and queens (treatment “B”: a mix of four compounds; 100 mg loading) using centrifuge dispensers (with one small cotton ball in each) with low release rate (ca. 2 mg/d), one positive control (treatment “C”: yellow plastic cap loaded with 1 g of Advance® Granular Carpenter Ant Bait, BASF Corporation, NJ, USA), plus a blank control (“D”), in a randomized block design (6 blocks/sets) using the Rescue!® crawling insect sticky traps. Same as in Exp. 1-2, the traps were placed were placed on the ground in lines with 2 m between traps within each set, 3 m between trap sets. […] Exp. 4 was distanced 20 m from Exp. 3. The weather was sunny with a mean daily temperature of 23.4° C. for days 1 and 2. On Day 3 the weather was overcast with a mean daily temperature of 25.3° C. and 0.97 cm of rainfall.
Experiments 5 and 6 were conducted simultaneously in late fall. Exp. 5 tested potential attraction of N. fulva workers to a synthetic mixture mimicking the full blend of N. fulva worker Dufour's gland pheromone (treatment “A”: a mix of eight compounds; 100 mg mixed with 400 μl canola oil (CO) from a stickpack dispenser; 8-12 mg/d), a synthetic pheromone candidate of N. fulva poison gland, formic acid (FA) (treatment “B”; 438 mg FA mixed with 812 mg of polyurethane inside an open 2-ml centrifuge tube; at 27-30 mg/d release) and their combination (treatment “C”) plus a blank control (“D”) in a randomized block design (6 blocks/sets) using the Rescue!® crawling insect sticky traps. Traps were again placed on the ground in lines with 2 m between traps within each set, 3 m between trap sets.

[2] = test system: workers of the red imported fire ants; conditions: contact/fumigation; cited from earlier work
[3] = test system: Argentine ant (Linepithema humile) workers; conditions: mixed with the baits; cited from earlier work
[4] = test system: L. humile workers; conditions: mixed in insecticide sprays; cited from earlier work

Row | SMILES | attraction compared with blank control [1] | toxicity to fire ant workers [2] | effect on consumption of sugar-based liquid baits by ant workers [3] | effect on killing efficacy of insecticides [4] | significance of difference from blank control ([1]; Exp. 5, late fall, low temperature and rain) | N. fulva workers caught compared with blank control (in words) ([1]; Exp. 5, late fall, low temperature and rain, mix of 8 at 8-12 mg/d, formic acid at 27-30 mg/d) | attraction of N. fulva workers ([1]; Exp. 7, summer, high ant populations, mix of 8 at 8-12 mg/d, formic acid at 27-30 mg/d) | attraction of tawny crazy ant workers ([1]; Exp. 9, fall, n-undecane from stickpack at 9-11 mg/d)
1 | CCCCCCCCCCCC(C)=O [2-tridecanone] | not different from the blank control | strong contact/fumigation toxicity | – | – | – | – | – | –
2 | CCCCCC/C=C\CCCCCCCC=O [Z-9-hexadecenal] | – | – | increase the consumption | increase the killing efficacy | – | – | – | –
3 | O=CO [formic acid] | not different from the blank control | strong contact/fumigation toxicity | – | – | no significant differences | twice as many | inactive | –
4 | CCCCCCCCCCC [n-undecane] | significantly attractive | strong contact/fumigation toxicity | – | – | – | – | – | weakly, but significantly attractive
